Results on seven compounds are retold here after PubChem BioAssay (NCI).

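The compound was tested at five concentrations on cells cultured in 96-well plates, with a 48-hour exposure period. GI50: concentration for 50% inhibition of growth. The concentration for full growth arrest is given as TGI.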

Among the test systems are T-47D breast; TK-10 renal; OVCAR-4 ovarian; U251 CNS; HT29 colon; MCF7 breast; OVCAR-3 ovarian; ACHN renal; HCC-2998 colon; UACC-257 melanoma.
Holding throughout (assay): NCI anticancer screen, dose series, 48 h

`COc1ccc(CNc2c3ccccc3nc3ccccc23)cc1F`: the GI50 is 4.39 µM with T-47D breast; 3.55 µM in the experiment with TK-10 renal; 3.28 µM in the experiment with OVCAR-4 ovarian; 3.82 µM in the experiment on U251 CNS; 2.58 µM in the experiment on HT29 colon; 2.11 µM in the experiment with MCF7 breast. For the same compound, the GI50 with OVCAR-3 ovarian was 4.08 µM; in the experiment on ACHN renal, 3.03 µM; in the experiment on HCC-2998 colon, 2.07 µM; with UACC-257 melanoma it was 3.98 µM. The TGI with T-47D breast is 21.5 µM; in the experiment with TK-10 renal it was 15.7 µM; in the experiment with OVCAR-4 ovarian, 12.5 µM; with U251 CNS it was 15.5 µM; in the experiment with HT29 colon it was 10.3 µM; with MCF7 breast it was 5.4 µM. The TGI with OVCAR-3 ovarian is 13.3 µM; with ACHN renal it was 11.3 µM; with HCC-2998 colon, 5.27 µM; in the experiment on UACC-257 melanoma, 16.7 µM.
Take `CCCCCCn1c(-c2ccc(C(=O)O/N=C(\N)c3ccc4c(c3)OCO4)cc2)nc(-c2ccccc2)c1-c1ccccc1`: the GI50 was 2.03 µM with T-47D breast; 1.94 µM in the experiment with TK-10 renal; 2.21 µM with OVCAR-4 ovarian; 1.74 µM in the experiment on U251 CNS; 3.64 µM in the experiment on HT29 colon; 1.58 µM in the experiment with MCF7 breast. Further, the GI50 with OVCAR-3 ovarian was 2.48 µM; in the experiment on ACHN renal, 0.387 µM; in the experiment with HCC-2998 colon, 2.96 µM; with UACC-257 melanoma, 10.5 µM. Besides, the TGI came out at 5.11 µM with T-47D breast; 3.61 µM in the experiment with TK-10 renal; 7 µM with OVCAR-4 ovarian; 3.81 µM with U251 CNS; 39.1 µM with HT29 colon; 3.5 µM in the experiment with MCF7 breast. For the same compound, the TGI in the experiment with OVCAR-3 ovarian was 7.87 µM; in the experiment on ACHN renal, 1.46 µM; in the experiment on HCC-2998 colon, 10.4 µM; in the experiment on UACC-257 melanoma, 43.2 µM.
Consider `Nc1nc(Cl)nc2c1ncn2C1CC(O)C(CO)O1` (configuration not stated), for which the GI50 is 5.75 µM with T-47D breast, 50.2 µM in the experiment on TK-10 renal and 0.562 µM with ACHN renal. In addition, the TGI in the experiment on T-47D breast is greater than 100 µM; in the experiment with TK-10 renal, greater than 100 µM; in the experiment on OVCAR-4 ovarian, greater than 100 µM; in the experiment with U251 CNS, greater than 96.5 µM; in the experiment on HT29 colon it was greater than 100 µM; with MCF7 breast it was greater than 100 µM. Besides, the TGI in the experiment on OVCAR-3 ovarian was greater than 100 µM; in the experiment with ACHN renal, greater than 100 µM; in the experiment on HCC-2998 colon, greater than 100 µM; in the experiment with UACC-257 melanoma it was 40.4 µM.
On to `CCOC(=O)c1c(C)c2c(n1Cc1ccccc1)CSCC2=O`, for which the GI50 with T-47D breast is 7.04 µM; with TK-10 renal, 27.3 µM; with OVCAR-4 ovarian it was 17.4 µM; in the experiment with U251 CNS, 22.4 µM; in the experiment on HT29 colon, 18.7 µM; with MCF7 breast, 17.7 µM. The GI50 is 17.5 µM in the experiment on OVCAR-3 ovarian, 18.8 µM in the experiment on ACHN renal, 25.4 µM with HCC-2998 colon and 26.9 µM with UACC-257 melanoma. The TGI is 45.3 µM with T-47D breast; 81.4 µM in the experiment on TK-10 renal; greater than 100 µM with OVCAR-4 ovarian; greater than 100 µM in the experiment with U251 CNS; greater than 100 µM in the experiment with HT29 colon; 44.7 µM with MCF7 breast. In addition, the TGI in the experiment on OVCAR-3 ovarian was 46.2 µM; in the experiment with ACHN renal, greater than 100 µM; with HCC-2998 colon, greater than 100 µM; with UACC-257 melanoma it was 94.1 µM.
For the compound `C=CC12CCN(CC1)C(C(O)c1ccnc3ccc(OC)cc13)C2` (configuration not stated), the GI50 is greater than 100 µM in the experiment on T-47D breast; greater than 100 µM in the experiment on TK-10 renal; greater than 100 µM in the experiment with OVCAR-4 ovarian; greater than 100 µM with U251 CNS; 61.9 µM with HT29 colon; 84.3 µM with MCF7 breast. Besides, the GI50 with OVCAR-3 ovarian was greater than 100 µM; in the experiment with ACHN renal, greater than 100 µM; in the experiment on HCC-2998 colon it was greater than 100 µM; in the experiment with UACC-257 melanoma, 74.2 µM. The TGI with T-47D breast, in the experiment on TK-10 renal, in the experiment on OVCAR-4 ovarian, in the experiment on U251 CNS, in the experiment on HT29 colon and in the experiment with MCF7 breast was greater than 100 µM in each case. Moreover, the TGI with OVCAR-3 ovarian, in the experiment with ACHN renal, in the experiment on HCC-2998 colon and in the experiment with UACC-257 melanoma was greater than 100 µM throughout.
With `COc1cccc2c1O/C(=C\c1ccc([N+](=O)[O-])s1)C2=O`, the GI50 in the experiment on T-47D breast is 1.48 µM; in the experiment with TK-10 renal, 3.16 µM; with U251 CNS it was 2.42 µM; with HT29 colon it was 10.3 µM; in the experiment on MCF7 breast it was 2.04 µM; in the experiment on OVCAR-3 ovarian it was 1.94 µM. For the same compound, the GI50 is 2.79 µM in the experiment with ACHN renal, 4 µM with HCC-2998 colon and greater than 100 µM in the experiment with UACC-257 melanoma. The TGI with T-47D breast is 7.16 µM; in the experiment on TK-10 renal, 8.83 µM; in the experiment with OVCAR-4 ovarian, greater than 100 µM; with U251 CNS, greater than 20.3 µM; in the experiment with HT29 colon, 21.9 µM; in the experiment on MCF7 breast, greater than 100 µM. Moreover, the TGI in the experiment with OVCAR-3 ovarian is 4.53 µM; in the experiment on ACHN renal it was greater than 100 µM; in the experiment on HCC-2998 colon, greater than 100 µM; in the experiment with UACC-257 melanoma, greater than 100 µM.
With `COC(=O)c1c(C)cc(OC)c(C/C=C(\C)CCCc2coc(C=C(C)C)c2)c1OC`, the TGI in the experiment with T-47D breast, in the experiment with TK-10 renal, in the experiment with OVCAR-4 ovarian, in the experiment on U251 CNS, in the experiment on HT29 colon and in the experiment on MCF7 breast was greater than 100 µM throughout. Further, the TGI with OVCAR-3 ovarian, in the experiment with ACHN renal, with HCC-2998 colon and with UACC-257 melanoma was greater than 100 µM in each case.
